The values below come from patent US20240009165A1, “GRISEOFULVIN AS AN ADJUNCT DRUG FOR THE TREATMENT OF CEREBRAL AND SEVERE MALARIA” (priority 2020, published 2024).

Assay [1] relates to P. berghei ANKA. The assay can be described thus: Plasma heme, hemopexin and hemoglobin estimation in infected mice. Format: in vivo. The following applies: griseofulvin-treated WT-infected mice. As to the method:
(§1) Heme, Hz, hemoglobin and hemopexin estimations. Free heme levels in the plasma samples of WT- and KO-infected mice were quantified using Hemin colorimetric assays. The assay is specific for free heme and it utilizes peroxidase activity of hemin to facilitate the conversion of a colorless probe to a strongly colored compound with absorbance at 570 nm. The quantification of free heme in the parasite lysates was carried out by resuspending the parasite pellets in 5 volumes of hypotonic lysis buffer containing 5 mM Tris pH 7.5 with protease inhibitors and incubating them in ice for 30 min. The lysates were then centrifuged at 20,000 g for 20 min, 4° C., and the supernatants obtained were used for free heme estimation as mentioned above for the plasma samples. The Hz content of the WT and KO parasite pellets was estimated as described. The parasite pellet was resuspended in 1 ml of 100 mM sodium acetate buffer, pH 5.0 and left at 37° C. for overnight, followed by centrifugation at 10,000 g for 5 min. The resultant pellet was resuspended in 100 mM Tris buffer pH 8.0 containing 2.5% SDS and incubated at 37° C. for 30 min, followed by centrifugation at 10,000 g for 5 min. The pellet obtained was washed once with 100 mM alkaline bicarbonate pH 9.2 and then with distilled water. The final Hz pellet was dissolved in 100 mM NaOH containing 2.5% SDS, and the absorbance was measured at 405 nm. The supernatants of sodium acetate and Tris SDS steps were collected to estimate the protein content by Micro BCA protein assay kit and heme content of the Hz was expressed per mg of total protein. To estimate the Hz content in the spleen and liver of the WT- and KO-infected mice, 50 mg tissue of the respective organs was homogenized in 50 mM Tris pH 8.0 containing 50 mM NaCl, 5 mM CaCl2 and 1% Triton X-100, and incubated for 12 h at 37° C. in the presence of proteinase K. The lysates were sonicated and centrifuged at 15,000 g for 30 min. The pellets obtained were resuspended with 100 mM sodium bicarbonate containing 2% SDS and sonicated, followed by centrifugation at 15,000 g for 15 min. After repeating this step thrice, the pellets were solubilized in 100 mM NaOH containing 2% SDS and 3 mM EDTA, and the absorbance was measured at 405 nm. In parallel, the parasite load in the organs was examined by quantitative PCR (qPCR) analysis carried out with Pb18SrRNA primers for the total RNA isolated from 30 mg tissue of the organs. After normalizing with respect to the parasite load, the total heme content of the Hz isolated was expressed per mg weight of the organ. Hemoglobin and hemopexin levels in the plasma samples of WT- and KO-infected mice were measured by ELISA.

In assay [2] the test system is P. berghei ANKA. The assay can be described thus: Cerebral malaria (CM) protection and mortality of PbWT-infected mice treated with griseofulvin. Format: in vivo. The text has this:
The present invention evaluated the potential of griseofulvin in preventing CM and treated WT-infected C57BL/6 mice from day 4 when the blood parasitemia was around 2%, and examined for CM pathogenesis. […] While ˜80% of the control mice succumbed to CM within day 10, more than 80% of the griseofulvin-treated mice were protected from CM. […] While the anemia mortality in CM-escaped control mice occurred within day 17, more than 80% of the griseofulvin-treated mice could survive beyond day 20 with almost 50% of them surviving even beyond day 24. […] To confirm that the CM protection is due to inhibition of parasite heme synthesis, the present invention analyzed heme synthesis in griseofulvin-treated and -untreated WT parasites by incubating the in vivo-treated pRBCs in vitro with ^14C-ALA (committed precursor of heme synthesis) for 9 h. There was around 60% decrease in the ^14C-labelling of free heme in griseofulvin-treated parasites. […] As observed for the KO parasites, the total Hz content in the griseofulvin-treated parasites was around 50-60% less when compared with untreated parasites and there was also close to 60% decrease in the free heme levels.
(§2) Routine propagation of P. berghei in mice and CM experiments. P. berghei ANKA WT and KO parasites were propagated in C57BL/6 male/female mice of 7-8 weeks old. Peripheral blood parasitemia was monitored by performing light microscopy for Giemsa stained thin blood smears prepared from tail vein blood. When the blood parasitemia was around 10%, 10^5 P. berghei ANKA WT or 10^5/10^7 ALAS/FC KO parasites were collected and injected intraperitoneally in 7-8 weeks old C57BL/6 male/female naïve mice to initiate CM experiments. Growth curve analysis was carried out by monitoring the blood parasitemia. The development and progression of ECM were monitored by examining RMCBS for neurological symptoms. To assess BBB integrity, Evans blue uptake assays were carried out by injecting 200 μl of 2% Evans blue in PBS intravenously and examining the extravasation of dye after one hour in the brain of the infected mice that were transcardially perfused with PBS. The extent of BBB damage was quantified by incubating the brain samples in formamide at 37° C. for 48 h, extracting the Evans blue and measuring the absorbance at 620 nm.
Griseofulvin treatment in mice. Griseofulvin was prepared by dissolving 1 or 2 mg in 40 μl DMSO and then making up the volume to 200 μl with 10% solutol HS 15 in saline. The mixture was vortexed thoroughly for 10 min to form an emulsion and injected intraperitoneally into the mice. All single dose injections were carried out at 06:00 h and double dose injections were carried out at 06:00 h and 18:00 h for the respective days. […]

Assay [3] concerns P. berghei ANKA. The assay can be described thus: Growth curve analysis (peripheral blood parasitemia) in treated mice. Format: in vivo. The following applies: 2 mg dose per day on day 4, 5, 6, 7 and 8; C57BL/6 mice. From the text: The present invention evaluated the potential of griseofulvin in preventing CM and treated WT-infected C57BL/6 mice from day 4 when the blood parasitemia was around 2%, and examined for CM pathogenesis. […] While ˜80% of the control mice succumbed to CM within day 10, more than 80% of the griseofulvin-treated mice were protected from CM. […] While the anemia mortality in CM-escaped control mice occurred within day 17, more than 80% of the griseofulvin-treated mice could survive beyond day 20 with almost 50% of them surviving even beyond day 24. […] To confirm that the CM protection is due to inhibition of parasite heme synthesis, the present invention analyzed heme synthesis in griseofulvin-treated and -untreated WT parasites by incubating the in vivo-treated pRBCs in vitro with ^14C-ALA (committed precursor of heme synthesis) for 9 h. […]
Routine propagation of P. berghei in mice and CM experiments. […] Peripheral blood parasitemia was monitored by performing light microscopy for Giemsa stained thin blood smears prepared from tail vein blood. […] The development and progression of ECM were monitored by examining RMCBS for neurological symptoms. […] The extent of BBB damage was quantified by incubating the brain samples in formamide at 37° C. for 48 h, extracting the Evans blue and measuring the absorbance at 620 nm. […]

In assay [4] the test system is P. berghei ANKA. The assay can be described thus: Evans blue extravasation in the brain (BBB integrity). Conditions: griseofulvin-treated WT-infected mice; brain on day 8 post-infection. Format: in vivo.
Description: as §2

In assay [5] the test system is parasite heme synthesis. The experiment in a line: 14C-ALA labelling of free heme in in vivo-treated pRBCs. Format: cell-based, P. berghei. Conditions: in vivo-treated pRBCs incubated in vitro with 14C-ALA for 9 h; vs untreated WT parasites. The text has this: The present invention evaluated the potential of griseofulvin in preventing CM and treated WT-infected C57BL/6 mice from day 4 when the blood parasitemia was around 2%, and examined for CM pathogenesis. […] While ˜80% of the control mice succumbed to CM within day 10, more than 80% of the griseofulvin-treated mice were protected from CM. […] While the anemia mortality in CM-escaped control mice occurred within day 17, more than 80% of the griseofulvin-treated mice could survive beyond day 20 with almost 50% of them surviving even beyond day 24. […]
Labelling studies with ^14C-ALA. […] For ^14C-ALA labelling, blood samples were collected from griseofulvin treated and control WT-infected mice around 16:00 h and the labelling was carried out for 9 h at a radioactivity of […]. […] The upper phase was separated, dried under nitrogen stream, dissolved in methanol and analysed by TLC on silica gel using the mobile phase 2,6-lutidine and water (5:3 v/v) in ammonia atmosphere. The intensity of radiolabelling was scanned using Biomolecular Imager by exposing the TLC sheets to phosphorimager screen and the radioactive counts were measured.

For assay [6], the system named is Plasmodium falciparum. The following applies: humans infected with Plasmodium falciparum; reference (34); cited from earlier work.
Assay [7] has as its system P. berghei ANKA. The experiment in a line: Histochemical and immunofluorescence analyses of brain sections. Format: in vivo. The following applies: griseofulvin-treated WT-infected mice. How it is done: Histological and immunofluorescence analyses of cerebral pathology in the brain of infected mice. For H&E staining to assess vascular blockage, hemorrhages and demyelination, brain samples were fixed with formalin for 72 hours at room temperature. After dehydrating with ethanol and treating with xylene, paraffin embedded blocks were made and sections of 7 μm thickness were prepared using rotary microtome. The sections were then processed and stained with H&E using standard protocols. Immunohistochemical analysis of IgG extravasation in the brain sections was carried out as described. Brain sections of 30 μm thickness was antigen retrieved by treating them at 95° C. for 30 min in sodium citrate buffer pH 6.0, followed by blocking with 3% H2O2 at room temperature for 30 min to prevent endogenous peroxidase activity. The sections were then incubated with HRP-conjugated goat anti-mouse IgG at 1:250 dilution in PBS containing 0.3% Triton X-100 and 0.1% BSA, followed by developing with diaminobenzidine tetrahydrochloride and counterstaining with hematoxilin. Immunofluorescence analysis of brain sections for parasite sequestration was carried out by fixing the brain samples in 4% paraformaldehyde in PBS containing 20% sucrose for 24 h at 4° C. and cryoprotecting them for 48 h in PBS containing 20% sucrose. Coronal sections of 30 μm thickness was prepared using cryostat microtome and antigen retrieval was carried out by treating them at 95° C. for 30 min in sodium citrate buffer pH 9.0. After blocking with 1% BSA, the sections were incubated with anti-CD31 mouse monoclonal antibody conjugated with Alexa Fluor 594 and anti-PbGAPDH rabbit polyclonal serum or anti-mouse CD3 rat monoclonal antibody for 16 h at 4° C. The sections were then treated with FITC-conjugated donkey anti-rabbit IgG or FITC-conjugated goat anti-rat IgG (1:200 dilution), followed by 4′,6-diamidino-2-phenylindole (DAPI) staining. Anti-mouse β-APP rabbit polyclonal antibody was used in 1:200 dilution.

The test system of assay [8] is hemozoin (Hz) formation. The experiment in a line: Hemozoin and free heme estimation in parasites. Format: in vivo, P. berghei. How it is done: as §1, with “To estimate the Hz content in the spleen and liver of the WT- and KO-infected mice, 50 mg tissue of the respective organs was homogenized in 50 mM Tris pH 8.0 containing 50 mM NaCl, 5 mM CaCl2 and 1% Triton X-100, and incubated for 12 h at 37° C. in the presence of proteinase K. The lysates were sonicated and centrifuged at 15,000 g for 30 min. The pellets obtained were resuspended with 100 mM sodium bicarbonate containing 2% SDS and sonicated, followed by centrifugation at 15,000 g for 15 min.” left out, “After normalizing with respect to the parasite load, the total heme content of the Hz isolated was expressed per mg weight of the organ.” left out

The subject of assay [9] is P. berghei ANKA. The assay can be described thus: α,β-arteether alone or with griseofulvin in preventing CM in mice. Format: in vivo.
Description: Griseofulvin treatment in mice. Griseofulvin was prepared by dissolving 1 or 2 mg in 40 μl DMSO and then making up the volume to 200 μl with 10% solutol HS 15 in saline. The mixture was vortexed thoroughly for 10 min to form an emulsion and injected intraperitoneally into the mice. All single dose injections were carried out at 06:00 h and double dose injections were carried out at 06:00 h and 18:00 h for the respective days. Control mice were injected with the solvent. α,β-arteether (E MAL) was administered intramuscularly. For experiments involving the combination of α,β-arteether and griseofulvin, α,β-arteether was administered intramuscularly at 06:00 h on day 6, followed by two doses of griseofulvin at 24 h interval (at 09:00 h on day 6 and 7).
[10] abbreviates: griseofulvin-treated WT parasites vs untreated.

SMILES strings stand for the structures.

On to `COC1=CC(=O)C[C@@H](C)[C@]12Oc1c(Cl)c(OC)cc(OC)c1C2=O` [griseofulvin], for which, in assay [1], the plasma heme/hemopexin ratio result is reported as “comparable to that of the KO-infected mice”, the “plasma level of Hb” value is listed as “comparable to that of the KO-infected mice”, the “plasma level of heme” value is listed as “comparable to that of the KO-infected mice” and the “plasma level of hemopexin” value is recorded as “comparable to that of the KO-infected mice”. Moreover, the “mice protected from CM” value in assay [2] (WT-infected C57BL/6 mice, single dose of 2 mg/day i.p. from day 4 until day 8, ~80% of control mice succumbed to CM within day 10) is “more than 80%”. For the same compound, the “delay in mortality due to anemia” value in [2] (griseofulvin-treated WT-infected C57BL/6 mice vs CM-escaped control mice) is given as “significant delay”. Moreover, the “mice surviving beyond day 24” value in assay [2] (griseofulvin-treated WT-infected mice) is given as “around 50%”. In addition, the “mice surviving beyond day 20” value in assay [2] (griseofulvin-treated WT-infected mice, anemia mortality in CM-escaped control mice within day 17) is listed as “more than 80%”. Further, in [3], the “growth curves of WT parasites in treated and untreated mice” value is given as “very much comparable”. Further, the “Evans blue extravasation in the brain” value in [4] is given as “less Evans blue extravasation”. Besides, the “decrease in 14C-labelling of free heme” value in assay [5] was “around 60%”. Besides, the “in vivo parasite growth in humans” value in [6] was “did not inhibit the in vivo parasite growth”. Besides, in assay [7] (H&E), the “intracerebral hemorrhages in brain sections” value is “absence of intracerebral hemorrhages”. In assay [7] (immunofluorescence), the “accumulation of CD3+ T cells in the cerebral vasculature” value was “lack of accumulation” and the “accumulation of parasites in the cerebral vasculature” value is reported as “lack of accumulation”. Further, the “Hz content by light microscopy” value in assay [8] (Giemsa-stained peripheral smears and paraformaldehyde-fixed pRBCs of treated mice) is recorded as “less Hz content”. Moreover, in assay [8] (setting [10]), the “decrease in free heme levels in parasites” value is “around 60%” and the “total Hz content, less than untreated parasites” value is recorded as 50-60%.
For `CCO[C@H]1O[C@@H]2O[C@@]3(C)CC[C@H]4[C@H](C)CC[C@@H]([C@H]1C)[C@@]24OO3` [α,β-arteether], the “peripheral parasitemia in blood smears” value in [9] (single intramuscular dose of 0.25 mg/mouse on day 6) was “clearance”. The “WT-infected mice developing CM” value in [9] (single intramuscular dose of 0.25 mg/mouse on day 6, parasitemia around 10%) is recorded as 60-70%.
